In US20240165089A1, “METHOD FOR TREATING MYOPIA WITH VINPOCETINE” (EYE HOSPITAL, WENZHOU MEDICAL UNIVERSITY, priority 2021, published 2024):
≈ marks a conversion by molar mass, not a printed value. Like-named read-outs stand apart in the source and are kept apart here.

Experiments:
[1] = cited from earlier work
[2] = rats; cited from earlier work
[3] = system: choroid of LIM guinea pigs; assay: choroidal thickness and blood flow by OCTA, LIM group; format: in vivo, guinea pig; conditions: 1 week, vs solvent injection group
Experimental: The choroidal blood flow parameters and choroidal thickness were measured for the animals in the above FDM group after 1 week of continuous administration and at the end of the 2 week-administration experiment and for the animals in the LIM group at the end of the 7 day-administration experiment. Choroidal blood flow parameters and thickness were measured using a modified commercial OCTA (Spectralis HRA+OCT, OCTA, Heidelberg, Germany) which is more suitable for animal eyeballs. Before the measurement, the guinea pigs were fully anesthetized (a mixture of ketamine hydrochloride 60 mg/kg and xylazine hydrochloride 9 mg/kg, intraperitoneally injected), and then the guinea pig OCTA images were obtained, and the measurement results were quantified through a self-written program (MatLab R2017a, MathWorks). Real-time quantitative detection of choroidal blood flow and thickness in guinea pigs was achieved (Sen Zhang, Invest Ophthalmol Vis Sci. 2019 Jul. 1; 60(8):3074-3083).
Vinpocetine is known to improve blood circulation. The inventors used the method of example 1 to detect changes of indicator signals of choroidal thickness ChT and choroidal blood flow ChBP of FDM (1 week and 2 weeks of administration) and LIM (1 week of administration) at different time points during the administration cycle.

guinea pigs = assay: safety observation during local administration to young guinea pigs; format: in vivo, guinea pig
Text: three-week-old tricolor guinea pigs (both male and female, simulating humans aged 3-26 years old) were used and raised in the experimental animal room of Wenzhou Medical University in a 12-hour light (400-500 lux)/12-hour dark environment with free access to water and food. The myopia model adopted monocular form deprivation (FD) and lens induction (LI) modeling methods. […] In the lens induction group, a −4D lens was fixed in front of the right eye of the animal, and the left eye obtained normal vision. For the above animals, the lenses were cleaned twice a day to prevent the lenses from blurring. The animals in the experimental group were administrated at 9:00-9:30 am every day. […] The administration process for each animal was controlled in about 10 seconds. Administration began on the day of modeling, and was continuous for 2 weeks for the form deprivation group and was continuous for 1 week for the lens induction group. This experiment has been reviewed by the Experimental Animal Ethics Committee of Wenzhou Medical University.

rats = conditions: rat, in vivo, cited from earlier work

In the case of `CCOC(=O)C1=C[C@]2(CC)CCCN3CCc4c(n1c1ccccc41)[C@@H]32` [vinpocetine], the solubility in water [1] is listed as “almost insoluble in water”, the “solubility in 0.5% methylcellulose” value ([1]; room temperature) is listed as 200 mg/mL (≈ 571 mM) and the solubility in water ([1]; room temperature) is listed as 0.0024 mg/mL (≈ 0.00685 mM). For the same compound, the oral bioavailability [2] was 52%, the “choroidal thickness ChT” value ([3]; not statistically significant) was “only slightly increased” and the “choroidal blood perfusion ChBP” value ([3]; p=0.766) was “only slightly increased”. The “common clinical adverse reactions or toxic manifestations such as weight loss” value (guinea pigs; guinea pig, in vivo) was “no individual was observed to have common clinical adverse reactions or toxic manifestations”, the allergic phenomenon (guinea pigs; local administration of vinpocetine) was “no allergic phenomenon” and the “changes in the pupil size of the test eyes” value (guinea pigs; local administration of vinpocetine to young guinea pigs) was “No significant changes”. For the same compound, the ocular abnormalities (guinea pigs; vinpocetine group, local administration) was “No ocular abnormalities”, the toxicity findings (rats; 20 mg/kg/day) was “no obvious abnormality” and the toxicity findings (rats; 40 mg/kg) was “signs of weight loss and food intake reduction”. For the same compound, the LD50 (rats; po) was “approximately 500 mg/kg”.
